Here are results for four compounds from publication PMC8698768, “The Effects of Sorbus aucuparia L. Fruit Extracts on Oxidative/Nitrative Modifications of Human Fibrinogen, Impact on Enzymatic Properties of Thrombin, and Hyaluronidase Activity In Vitro” (Antioxidants, 2021).

Test [1] concerns the target T1, hyaluronidase from bovine testes type I-S (Bos taurus, UniProt F1MTV1).
T1 construct: gene SPAM1; native commercial preparation from bovine testes (Sigma-Aldrich, type I-S)
T1 sequence (F1MTV1 36-553): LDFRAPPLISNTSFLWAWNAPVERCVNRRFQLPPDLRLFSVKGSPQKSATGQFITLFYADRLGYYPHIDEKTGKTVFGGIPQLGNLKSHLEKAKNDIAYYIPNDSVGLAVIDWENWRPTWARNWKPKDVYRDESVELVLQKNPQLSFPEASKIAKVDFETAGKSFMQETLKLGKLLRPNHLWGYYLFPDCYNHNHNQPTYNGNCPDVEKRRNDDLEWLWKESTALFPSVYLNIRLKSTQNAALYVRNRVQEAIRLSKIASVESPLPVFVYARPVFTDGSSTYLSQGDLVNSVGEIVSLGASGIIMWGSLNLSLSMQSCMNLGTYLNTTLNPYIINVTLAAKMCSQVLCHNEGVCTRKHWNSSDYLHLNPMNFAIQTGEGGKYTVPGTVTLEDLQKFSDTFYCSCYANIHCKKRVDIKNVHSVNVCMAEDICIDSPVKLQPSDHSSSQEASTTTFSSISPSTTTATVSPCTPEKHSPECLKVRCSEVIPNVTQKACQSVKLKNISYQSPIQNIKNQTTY
In words: turbidimetric hyaluronidase inhibition assay. The test is classed as biochemical. The settings on record: substrate hyaluronic acid 0.03%, with bovine serum albumin 0.1%; per mL of the enzyme solution; read-out: IC50 (μg/mL) ^a. The source says: turbidimetric hyaluronidase inhibition assay on hyaluronidase from bovine testes type I-S

For test [2], the target named is T2, thrombin (Bos taurus, UniProt P00735).
T2 construct: gene F2; Biomed Lublin thrombin is usually of bovine origin, human (P00734) not excluded
In words: chromogenic amidolytic assay (S-2238), […] nm. The test is classed as biochemical. Particulars: read-out: % inhibition at 50 μg/mL.

With `O=C(/C=C/c1ccc(O)c(O)c1)O[C@@H]1C[C@](O)(C(=O)O)C[C@@H](O)[C@H]1O` [CHA, chlorogenic acid], the IC50 in test [1] was over 339 µM.

Regarding `O=c1c(O[C@@H]2O[C@H](CO)[C@@H](O)[C@H](O)[C@H]2O)c(-c2ccc(O)c(O)c2)oc2cc(O)cc(O)c12` [IQ, isoquercitrin], the IC50 in test [1] was over 431 µM.

Turning to `Oc1cc(O)c2c(c1)O[C@H](c1ccc(O)c(O)c1)[C@H](O)[C@H]2c1c(O)cc(O)c2c1O[C@H](c1ccc(O)c(O)c1)[C@H](O)C2` [PB2, procyanidin B2], the inhibition at 50 µg/mL in test [2] came out at 27%. The IC50 in test [1] is over 207 µM. In the case of `O=c1c(O[C@@H]2O[C@H](CO)[C@@H](O)[C@H](O)[C@H]2O[C@@H]2O[C@H](CO)[C@@H](O)[C@H](O)[C@H]2O)c(-c2ccc(O)c(O)c2)oc2cc(O)cc(O)c12` [SQ, quercetin 3-O-β-sophoroside], the IC50 in test [1] was over 319 µM.
